# Structures can show the parent of a compound that is named as a salt.
# System: PMS1
# Test: Mini-Gene Reporter Assay—PMS1 (firefly luciferase mini-gene reporter transiently transfected into HEK293 cells)
# Assay type: cell-based
# Settings: Homo sapiens; at 5 uM; mini-gene firefly luciferase reporter in HEK293 cells; read-out: PMS1 % Effect at 5 uM
# Description: Example 76. Mini-Gene Reporter Assay—PMS1
# Mini-gene reporter constructs for each target site can be constructed by first PCR amplifying the region-of-interest including the sequence of the alternatively skipped, sequences of the immediate upstream and downstream introns, and sequences of the immediate upstream and downstream exons. Then the 3′ end of the amplified sequence can be ligated to a firefly luciferase reporter gene and cloned into the pcDNA3.1 vector backbone. The final reporter construct can be transiently transfected into HEK293 cells using Lipofectamine 3000 transfection reagents. Compounds that can induce the inclusion of the skipped exon in the reporter construct would increase the reporter firefly luciferase activity.
# Test compounds may be diluted in duplicates and dispensed into an assay plate. Transient mini-gene reporter cell line stock is resuspended and dispensed into the assay plate. Assay plates are then centrifuged and incubated. A luciferase reagent (e.g. ONE-Glo firefly luciferase reagent from Promega®) may be added to the assay plate and the luminescence (RLU) signals recorded. EC50 values may be determined by curve fitting in Levenberg-Marquardt algorithm.
# In Table D below, A indicates a IC50 (μM)<1 μM, B indicates a IC50 (μM) 1 μM to <10 μM, and C indicates a IC50 (μM) 10 μM to <50 μM. In Table D below, A indicates a >75% Effect at 5 μM μM. B indicates a 50 to <75% Effect at 5 μM μM, and C indicates a <50% Effect at 5 μM.
row,Compound,activation at 5 µM
1,"CCOc1cc2nc(C)cn2cc1C(=O)Nc1ccc(N2CC[C@H](NC)C2)nn1 (single isomer, unassigned) [Compound 706]",> 75%
2,"CCOc1cc2nc(C)cn2cc1C(=O)Nc1ccc(N2CC[C@@H](NC)C2)nn1 (single isomer, unassigned) [Compound 707]",> 75%
3,"Cc1cn2cc(C(=O)Nc3ccc(N4CCNCC4)cc3F)ncc2n1 [Compound 101, N-(2-fluoro-4-(piperazin-1-yl)phenyl)-2-methylimidazo[1,2-a]pyrazine-6-carboxamide HCl Salt]",< 50%
4,"Cc1cn2cc(C(=O)Nc3ccc(N4CCNCC4)cc3)ncc2n1 [Compound 102, 2-methyl-N-(4-(piperazin-1-yl)phenyl)imidazo[1,2-a]pyrazine-6-carboxamide]",< 50%
5,"Cc1cn2cc(C(=O)Nc3ccc(N4CCNCC4)nc3)ncc2n1 [Compound 103, 2-methyl-N-(6-(piperazin-1-yl)pyridin-3-yl)imidazo[1,2-a]pyrazine-6-carboxamide]",< 50%
6,"Cc1cn2cc(C(=O)Nc3ccc(N4CCN[C@H](C)C4)nc3)ncc2n1 [Compound 104, hydrochloride]",< 50%
7,"Cc1cn2cc(C(=O)Nc3ccc(N4CCN[C@H](C)C4)cc3F)ncc2n1 [Compound 105, (R)—N-(2-fluoro-4-(3-methylpiperazin-1-yl)phenyl)-2-methylimidazo[1,2-a]pyrazine-6-carboxamide hydrochloride]",< 50%
8,"Cc1cn2cc(C(=O)Nc3ccc(N4C[C@H]5CC[C@@H](C4)N5)cc3F)ncc2n1 [Compound 106, N-(4-((1R,5S)-3,8-diazabicyclo[3.2.1]octan-3-yl)-2-fluorophenyl)-2-methylimidazo[1,2-a]pyrazine-6-carboxamide]",< 50%
9,"Cc1cn2cc(C(=O)Nc3ccc(N4CCN[C@@H](C)C4)cn3)cc(F)c2n1 [Compound 107, (S)-8-fluoro-2-methyl-N-(5-(3-methylpiperazin-1-yl)pyridin-2-yl)imidazo[1,2-a]pyridine-6-carboxamide TFA Salt]",50 to 75%
10,"Cc1cn2cc(C(=O)Nc3ccc(N4CCNCC4)cc3F)nc(C)c2n1 [Compound 109, N-(2-fluoro-4-(piperazin-1-yl)phenyl)-2,8-dimethylimidazo[1,2-a] pyrazine-6-carboxamide hydrochloride]",> 75%
11,"COc1c(C(=O)Nc2ccc(N3CCNCC3)cn2)cn2cc(C)nc2c1C [Compound 112, 7-methoxy-2,8-dimethyl-N-(5-(piperazin-1-yl)pyridin-2-yl)imidazo[1,2-a]pyridine-6-carboxamide]",< 50%
12,"COc1cc2nn(C)cc2cc1C(=O)Nc1ccc(N2CC3(CNC3)C2)cc1F [Compound 116, N-(2-fluoro-4-(2,6-diazaspiro[3.3]heptan-2-yl)phenyl)-6-methoxy-2-methyl-2H-indazole-5-carboxamide TFA Salt]",< 50%
13,"COc1cc2nn(C)cc2cc1C(=O)Nc1ccc(N2CC3CNCC3C2)cc1F (stereo not shown) [Compound 117, N-(2-fluoro-4-(hexahydropyrrolo[3,4-c]pyrrol-2(1H)-yl)phenyl)-6-methoxy-2-methyl-2H-indazole-5-carboxamide]",< 50%
14,"Cc1cn2cc(C(=O)Nc3ccc(N4CCNCC4)nc3)cc(F)c2n1 [Compound 121, 8-fluoro-2-methyl-N-(6-(piperazin-1-yl)pyridin-3-yl)imidazo[1,2-a]pyridine-6-carboxamide]",< 50%

# Same assay, conditions: Homo sapiens; mini-gene firefly luciferase reporter in HEK293 cells
row,IC50,Compound
1,< 1000 nM,"COc1cc2nc(C)cn2cc1C(=O)Nc1ccc(N2CCN[C@@H]3CC[C@@H]32)cc1F (racemic) [Compound 174, rac-N-(4-((1R,6S)-2,5-diazabicyclo[4.2.0]octan-2-yl)-2-fluorophenyl)-7-methoxy-2-methylimidazo[1,2-a]pyridine-6-carboxamide]"
2,1000 to 10000 nM,CCOc1cc2nc(C)cn2cc1C(=O)Nc1ccc(N2C[C@H]3CNCC[C@H]32)nn1 (racemic) [Compound 239]
3,1000 to 10000 nM,CCOc1cc2nc(C)cn2cc1C(=O)Nc1ccc(N2CC[C@@H]3NCCC[C@@H]3C2)nn1 (racemic) [Compound 241]
4,1000 to 10000 nM,CCOc1cc2nc(C)cn2cc1C(=O)Nc1ccc(N2CC[C@@H]3CNC[C@@H]3C2)nn1 (racemic) [Compound 246]
5,1000 to 10000 nM,CCOc1cc2nc(C)cn2cc1C(=O)Nc1ccc(N2CCC[C@H]3NCC[C@H]32)nn1 (racemic) [Compound 252]
6,1000 to 10000 nM,CCOc1cc2nc(C)cn2cc1C(=O)Nc1ccc(N2C[C@@H]3CNC[C@]3(C)C2)nn1 (racemic) [Compound 253]
7,1000 to 10000 nM,CCOc1cc2nc(C)cn2cc1C(=O)Nc1ccc(N2CC[C@@H]3NCC[C@@H]3C2)nn1 (racemic) [Compound 261]
8,1000 to 10000 nM,"Cc1cn2cc(C(=O)Nc3ccc(N4CCNCC4)cc3F)cc(F)c2n1 [Compound 108, 8-fluoro-N-(2-fluoro-4-(piperazin-1-yl)phenyl)-2-methylimidazo[1,2-a]pyridine-6-carboxamide hydrochloride]"
9,< 1000 nM,"COc1cc2nc(C)cn2cc1C(=O)Nc1ccc(N2CCNCC2)cn1 [Compound 110, 7-methoxy-2-methyl-N-(5-(piperazin-1-yl)pyridin-2-yl)imidazo[1,2-a]pyridine-6-carboxamide HCl Salt]"
10,< 1000 nM,"COc1cc2nc(C)cn2cc1C(=O)Nc1ccc(N2CCNCC2)cc1F [Compound 111, N-(2-fluoro-4-(piperazin-1-yl)phenyl)-7-methoxy-2-methylimidazo [1,2-a]pyridine-6-carboxamide hydrogen chloride]"
11,1000 to 10000 nM,"COc1cc2nn(C)cc2cc1C(=O)Nc1ccc(N2CCNCC2)cn1 [Compound 113, 6-methoxy-2-methyl-N-(5-(piperazin-1-yl)pyridin-2-yl)-2H-indazole-5-carboxamide HCl Salt]"
12,< 1000 nM,"COc1cc2nn(C)cc2cc1C(=O)Nc1ccc(N2CCN[C@@H](C)C2)cc1F [Compound 114, (S)—N-(2-fluoro-4-(3-methylpiperazin-1-yl)phenyl)-6-methoxy-2-methyl-2H-indazole-5-carboxamide HCl Salt]"
13,< 1000 nM,"COc1cc2nn(C)cc2cc1C(=O)Nc1ccc(N2CCNCC2)cc1F [Compound 115, N-(2-fluoro-4-(piperazin-1-yl)phenyl)-6-methoxy-2-methyl-2H-indazole-5-carboxamide HCl Salt]"
14,< 1000 nM,"COc1cc2nc(C)cn2cc1C(=O)Nc1ccc(N2CCNCC2)nn1 [Compound 118, 7-methoxy-2-methyl-N-[6-(piperazin-1-yl)pyridazin-3-yl]imidazo[1,2-a]pyridine-6-carboxamide]"
15,1000 to 10000 nM,"COc1cc2nc(C)cn2cc1C(=O)Nc1ccc(N2CCNCC2)nc1 [Compound 119, 7-methoxy-2-methyl-N-[6-(piperazin-1-yl)pyridin-3-yl]imidazo[1,2-a]pyridine-6-carboxamide]"
16,1000 to 10000 nM,"COc1cc2nc(C)cn2cc1C(=O)Nc1cnc(N2CCNCC2)nc1 [Compound 120, 7-methoxy-2-methyl-N-(2-(piperazin-1-yl)pyrimidin-5-yl)imidazo[1,2-a]pyridine-6-carboxamide]"
17,1000 to 10000 nM,"COc1cc2nn(C)cc2cc1C(=O)Nc1ccc(N2CCNCC2)nn1 [Compound 123, 6-methoxy-2-methyl-N-(6-(piperazin-1-yl)pyridazin-3-yl)-2H-indazole-5-carboxamide hydrochloride]"
18,1000 to 10000 nM,"Cc1cn2cc(C(=O)Nc3ccc(N4CCN[C@@H](C)C4)nn3)nc(C)c2n1 [Compound 124, (S)-2,8-dimethyl-N-(6-(3-methylpiperazin-1-yl)pyridazin-3-yl)imidazo[1,2-a]pyrazine-6-carboxamide hydrochloride]"
19,< 1000 nM,"COc1cc2nn(C)cc2cc1C(=O)Nc1ccc(N2CCN[C@@H](C)C2)nn1 [Compound 125, (S)-6-methoxy-2-methyl-N-(6-(3-methylpiperazin-1-yl)pyridazin-3-yl)-2H-indazole-5-carboxamide hydrochloride]"
20,< 1000 nM,"CCOc1cc2nc(C)cn2cc1C(=O)Nc1ccc(N2CCNCC2)cc1F [Compound 126, 7-ethoxy-N-(2-fluoro-4-(piperazin-1-yl)phenyl)-2-methylimidazo[1,2-a]pyridine-6-carboxamide]"
21,1000 to 10000 nM,"COc1c(C(=O)Nc2ccc(N3CCNCC3)cc2F)cn2cc(C)nc2c1C [Compound 127, N-(2-fluoro-4-(piperazin-1-yl)phenyl)-7-methoxy-2,8-dimethylimidazo[1,2-a]pyridine-6-carboxamide]"

row,Compound,IC50
1,"Cc1cn2cc(C(=O)Nc3ccc(N4CCN[C@@H](C)C4)nn3)c(OC3CCC3)cc2n1 [Compound 122, (S)-7-cyclobutoxy-2-methyl-N-(6-(3-methylpiperazin-1-yl)pyridazin-3-yl)imidazo[1,2-a]pyridine-6-carboxamide hydrochloride]",< 1000 nM
2,"Cc1cn2cc(C(=O)Nc3ccc(N4CCNCC4)cn3)c(OC3CCC3)cc2n1 [Compound 128, 7-cyclobutoxy-2-methyl-N-(5-(piperazin-1-yl)pyridin-2-yl) imidazo[1,2-a]pyridine-6-carboxamide hydrochloride]",< 1000 nM
